Reference: US20250248979A1, “NOVEL GPX4 INHIBITORS AND USES THEREOF” (THE TRUSTEES OF COLUMBIA UNIVERSITY IN THE CITY OF NEW YORK, priority 2022, published 2025)

Target: T1, GPX4 (Homo sapiens, UniProt P36969)
T1 sequence (P36969 1-170 isoform P36969-2): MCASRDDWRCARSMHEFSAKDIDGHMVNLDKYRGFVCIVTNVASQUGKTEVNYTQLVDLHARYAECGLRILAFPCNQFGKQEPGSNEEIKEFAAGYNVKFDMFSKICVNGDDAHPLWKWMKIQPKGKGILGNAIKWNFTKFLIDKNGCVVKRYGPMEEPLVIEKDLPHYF
Assay: GPX4 activity assay in cell lysates (NADPH-coupled)
Assay type: biochemical
Set-up: endogenous in cells; host or cells: A-673 cell lysate
Conditions: not given
Experimental: Determination of GPX4 activity in cell lysates was performed as previously described by Roveri et al. 1994 with minor modifications. Briefly, the assay measures the consumption of NADPH, which has a characteristic absorbance at 340 nm, over time as a proxy for GPX4 activity. The rationale for this is that as GPX4 reduces phospholipid hydroperoxides, it oxidizes glutathione, which is then regenerated by glutathione reductase at the expense of NADPH. NADPH is added to the assay in excess such that the reduction of oxidized glutathione is not the rate-limiting reaction in the assay. Thus, the resulting reduction in NADPH absorbance over time reflects GPX4 activity.
The GPX4-specific substrate phosphatidylcholine hydroperoxide (PCOOH) was prepared by enzymatic hydroperoxidation. Specifically, 0.3 mM phosphatidylcholines (Sigma-Aldrich) were incubated with 0.7 mg soybean lipoxidase type IV (Sigma-Aldrich) in 22 mL of 0.2 M Tris-HCl pH 8.8 with 3 mM sodium deoxycholate at room temperature under continuous stirring for 30 minutes. A Sep-Pak C18 cartridge (Waters-Millipore) was pre-washed with methanol and equilibrated with water, then the substrate mixture was loaded. The column was washed with 10 volumes of water and PCOOH was eluted with 2 mL of methanol.
To prepare the cell lysate containing native GPX4, A-673 cells were cultured with 20 nM sodium selenite to confluency over two days then harvested and washed with cold PBS. Cells were then resuspended at 10 million cells per 1 mL LCW lysis buffer (0.5% peroxide-free Triton X-100, 0.5% sodium deoxycholate salt, 150 mM NaCl, 20 mM Tris-HCl pH 7.5, 10 mM EDTA, 30 mM sodium pyrophosphate, and complete protease inhibitor cocktail), vortexed for 30 seconds, and incubated on ice for 15 minutes. After lysis, the lysates were centrifuged at 14,000×g and 4° C. for 15 minutes. The supernatants were transferred to new pre-chilled tube and the debris pellet was discarded. The protein concentration in the lysate was determined for normalization using the BCA Protein Assay Kit (Pierce).
To measure GPX4 activity, 50 μL of cell lysate was combined with 200 μL activity assay buffer (0.1% Triton X-100, 100 mM Tris-HCl pH 8.0, 10 mM sodium azide, 5 mM EDTA, 0.6 IU/mL glutathione reductase, 0.5 mM NADPH and 3 mM GSH) and compounds of interest in a clear 96-well plate and incubated at 37° C. for 45 minutes. Compounds were dissolved in DMSO. All conditions were tested in triplicate. PCOOH substrate was added to the mixture to initiate GPX4 activity just before reading the plate. The absorbance of NADPH at 340 nm was monitored kinetically over time for 25 minutes. Buffer-only controls and controls without substrate containing only the methanol vehicle were performed to assess background and baseline signal. GPX4 activity was calculated as previously reported by Stolwijk et al. 2020 and results were analyzed in GraphPad Prism 9.

| GPX4 inhibitory activity, result in words | Structure (SMILES) |
| --- | --- |
| inactive during GPX4 inhibition | C=CC(=O)OCC(C)(C)NC(=O)c1nn(C)c2cc(Br)ccc12 [QW-417] |
| inactive during GPX4 inhibition | Cn1nc(C(=O)NC(C)(C)COC(=O)CCl)c2ccc(-c3ccc(C#N)cc3)cc21 [QW-445] |
| completely loss of the inhibitory effect | COc1cccc(OC)c1-c1ccc2c(C(=O)NC(C)(C)COC(=O)CCl)nn(C)c2c1 [QW-487] |

Same assay, conditions: 5 μM

| GPX4% inhibition at 5 μM | Structure (SMILES) |
| --- | --- |
| 34.1 ± 0.3% | Cn1nc(C(=O)NC(C)(C)COC(=O)CCl)c2ccc(-c3ccc(F)nc3)cc21 [QW-444] |
| 21.2 ± 5.7% | Cn1nc(C(=O)NC(C)(C)COC(=O)CCl)c2ccc(-c3ccc(C#N)cc3)cc21 [QW-445] |
| 37.7 ± 4.1% | Cn1nc(C(=O)NC(C)(C)COC(=O)CCl)c2ccc(-c3ccoc3)cc21 [QW-451] |
| 55.0 ± 5.8% | Cn1nc(C(=O)NC(C)(C)COC(=O)CCl)c2ccc(-c3cccc([N+](=O)[O-])c3)cc21 [QW-452] |
| 67.0 ± 4.7% | Cn1nc(C(=O)NC(C)(C)COC(=O)CCl)c2ccc(-c3cc4ccccc4[nH]3)cc21 [QW-453] |
| 54.4 ± 7.2% | Cn1nc(C(=O)NC(C)(C)COC(=O)CCl)c2ccc(-c3ccc4c(c3)OCCO4)cc21 [QW-457] |
| −10.3 ± 4.3% | Cn1nc(C(=O)NC(C)(C)COC(=O)CCl)c2ccc(-c3cccc4[nH]ccc34)cc21 [QW-467] |
| 64.3 ± 0.7% | Cn1nc(C(=O)NC(C)(C)COC(=O)CCl)c2ccc(-c3ccc(OC(F)(F)F)cc3)cc21 [QW-469] |
| 59.6 ± 6.8% | COc1cc(-c2ccc3c(C(=O)NC(C)(C)COC(=O)CCl)nn(C)c3c2)cc(OC)c1OC [QW-479] |
| 35.8 ± 7.4% | COc1ccccc1-c1ccc2c(C(=O)NC(C)(C)COC(=O)CCl)nn(C)c2c1 [QW-483] |
| 3.3 ± 3.0% | COc1cccc(OC)c1-c1ccc2c(C(=O)NC(C)(C)COC(=O)CCl)nn(C)c2c1 [QW-487] |

Same assay, conditions: 5 μM; generation 2

| GPX4% inhibition at 5 μM | Structure (SMILES) |
| --- | --- |
| 62.1 ± 2.4% | Cn1nc(C(=O)NC(C)(C)COC(=O)CCl)c2ccc([N+](=O)[O-])cc21 [QW-380] |
| 4.5 ± 17.8% | Cn1nc(C(=O)NC(C)(C)CC(O)S(=O)(=O)[O-])c2ccccc21.[Na+] (stereo not shown) [QW-394] |
| 20.3 ± 9.5% | COc1cccc2c(C(=O)NC(C)(C)COC(=O)CCl)nn(C)c12 [QW-398] |
| −14.3 ± 5.2% | CC(C)(COC(=O)CCl)NC(=O)c1nc2cc(Br)ccc2[nH]1 [QW-407] |
| −6.0 ± 3.1% | CC=CC(=O)OCC(C)(C)NC(=O)c1nn(C)c2ccccc12 [QW-411] |
| −5.7 ± 8.0% | COC(=O)C=CC(=O)OCC(C)(C)NC(=O)c1nn(C)c2ccccc12 [QW-412] |
| −9.1 ± 13.4% | CC=CC(=O)OCC(C)(C)NC(=O)c1nn(C)c2cc(Br)ccc12 [QW-414] |
| −9.4 ± 8.1% | COC(=O)C=CC(=O)OCC(C)(C)NC(=O)c1nn(C)c2cc(Br)ccc12 [QW-415] |
| 25.3 ± 13.4% | Cn1nc(C(=O)NC(C)(C)COC(=O)CBr)c2ccc(Br)cc21 [QW-416] |
| −5.2 ± 10.0% | C=CC(=O)OCC(C)(C)NC(=O)c1nn(C)c2cc(Br)ccc12 [QW-417] |
| −5.6 ± 5.1% | Cn1nc(C(=O)NC(C)(C)COC(=O)C#C[Si](C)(C)C)c2ccc(Br)cc21 [QW-418] |
| −10.9 ± 8.0% | C#CC(=O)OCC(C)(C)NC(=O)c1nn(C)c2cc(Br)ccc12 [QW-420] |
| −11.3 ± 4.7% | Cn1nc(C(=O)NC(C)(C)COC(=O)CCl)c2cccnc21 [QW-426] |
| −2.3 ± 2.3% | Cc1cc(C(=O)OCC(C)(C)NC(=O)c2nn(C)c3cc(Br)ccc23)no1 [QW-429] |

Same assay, conditions: 20 μM; generation 2

| GPX4% inhibition at 20 (μM) | Structure (SMILES) |
| --- | --- |
| 4.1 ± 4.7% | Cn1nc(C(=O)NC(C)(C)C=O)c2ccccc21 [QW-387] |
| 1.6 ± 1.9% | Cn1nc(C(=O)NC(C)(C)CC=O)c2ccccc21 [QW-388] |
| 32.2 ± 2.5% | Cn1nc(C(=O)NC(C)(C)C(O)S(=O)(=O)[O-])c2ccccc21.[Na+] (stereo not shown) [QW-389] |
| 4.0 ± 3.9% | CC(C)(COC(=O)CCl)NC(=O)c1n[nH]c2ncccc12 [QW-390] |
| 5.3 ± 8.5% | CC(C)(COC(=O)CCl)NC(=O)c1ncn2ccccc12 [QW-391] |

Same assay, conditions: concentration not given

| GPX4 inhibition rate | Structure (SMILES) |
| --- | --- |
| 50% | Cn1nc(C(=O)NC(C)(C)COC(=O)CCl)c2ccc(-c3cccc([N+](=O)[O-])c3)cc21 [QW-452] |
